Tests used:
Assay type in all cases: in vivo
horses and cattle = assay: Sedative and analgesic effect of detomidine in horses and cattle; conditions: i.m. or i.v.
From the text: This invention relates to the preparation of 2-[2-(1,4-benzodioxanyl)]-2-imidazoline, and to its use. Detomidine, which has the formula [drawing 1] is a known compound with sedative and analgesic effect in animals. The potency and the duration of the effect can be regulated by the dosage. The compound is very potent; dosages as small as […] given by injection provide a clinical response. Detomidine is used in veterinary medicine especially in the handling of horses and cattle (pharmacological restraint). The animal is sedated before investigation, treatment and difficult medical operations. Even small surgical operations cannot be carried out without the use of a sedative agent.
The analgesic effect is dose dependent. […] Table 1: The effect of detomidine in horses and cattle. Dosage i.m. or i.v.

Calves (8) and Cows (7) = assay: Awakening from detomidine-induced sedation, calves and cows; conditions: detomidine 0.04-0.06 mg/kg i.m., compound (I) i.v. after 30 min, same dose as detomidine
Description: (§1) Trials were carried out as follows: • (A) A dose of 0.04-0.06 mg/kg of detomidine was injected i.m. into the test animals. After exactly 30 min. compound (I) was given intravenously. The awakening of the animal or its recovery from the sedation was then observed. Calves (8) and Cows (7) recovered from detomidine-induced sedation in 2 to 5 minutes from the injection of compound (I). Horses (4) awoke in 5 to 10 min. The awakening effect of compound (I) was found stable for both species. […] For the calves and cows, the dose of compound (I) was the same as the dose of detomidine. For the horses, the dose of compound (I) was five times greater than that of detomidine. • (B) A dose of 2 mg/kg of xylazine was injected i.m. into 10 dogs. This injection induced sedation which lasted for 0.5 - 1 hr. During this time the dogs were able to walk only with difficulty.

Horses (4) = assay: Awakening from detomidine-induced sedation, horses; conditions: detomidine 0.04-0.06 mg/kg i.m., compound (I) i.v. after 30 min, dose five times greater than that of detomidine
Description: as §1

dogs = assay: Awakening from xylazine-induced sedation in dogs; conditions: compound (I) 0.1 - 0.3 mg/kg i.v. 20 min. after 2 mg/kg of xylazine
Description: In other experiments compound (I) was given at a dose of 0.1 - 0.3 mg/kg i.v. 20 min. after the injection of 2 mg/kg of xylazine. The awakening of the dogs and their recovery from the sedation was observed. The dogs recovered from the xylazine-induced sedation in 2 - 3 minutes after the administration of compound (I).

rats [1] = assay: Inhibition of the sedative effect of 4-(2,6-dimethylbenzyl)imidazole in rats (spontaneous locomotor activity, activity meter); conditions: compound (I) 1-3 mg/kg i.v. or i.p., 15 minutes after 4-(2,6-dimethylbenzyl)imidazole
Description: (§2) (C) The following tests concerning the sedative effect of 4-(2,6-dimethylbenzyl)imidazole and the inhibition of this effect with compound (I) were carried out in rats.
In other tests, compound (I) was given i.v. or i.p. to rats at a dose of 1-3 mg/kg, 15 minutes after the administration of 4-(2,6-dimethylbenzyl)imidazole. The recovery of the animals from the sedation was observed by measuring their spontaneous locomotor activity with an activity meter.

rats [2] = assay: Sedative effect (loss of the righting reflex) in rats; conditions: 10 rats; dose of 0.5 mg/kg
Description: as §2
A dose of 0.5 mg/kg of 4-(2,6-dimethylbenzyl) imidazole was injected into 10 rats. This dose induced loss of the righting reflex for 1 h.

Cc1cccc(Cc2c[nH]cn2)c1C [detomidine, Detomidine]
Delay before the effect begins (horses and cattle; dose 20-40 µg/kg): 3 to 5 min | Effect (horses and cattle; dose 20-40 µg/kg): easy to handle; short effect | Other effects (horses and cattle; dose 20-40 µg/kg): slight stagger-ing | Delay before the effect begins (horses and cattle; dose 40-80 µg/kg): 2 to 5 min | Effect (horses and cattle; dose 40-80 µg/kg): strong effect | Other effects (horses and cattle; dose 40-80 µg/kg): stagger-ing, sweating pilo-erection, muscular tremor | Delay before the effect begins (horses and cattle; dose 80-150 µg/kg): 1 to 5 min | Duration of the effect (horses and cattle; dose 80-150 µg/kg): 2 to 6 h | Other effects (horses and cattle; dose 80-150 µg/kg): Strong stagger-ing, pilo-erection, sweating, diuresis

c1ccc2c(c1)OCC(C1=NCCN1)O2 (stereo not drawn) [compound (I), 2-[2-(1,4-benzodioxanyl)]-imidazoline]
awakening effect (Calves (8) and Cows (7)): stable | side-effects (Calves (8) and Cows (7)): No side-effects were observed | awakening effect (Horses (4)): stable | side-effects (Horses (4)): No side-effects were observed | awakening effect (dogs): stable | side-effects (dogs): No side-effects were observed | counteraction of the sedative effect of 4-(2,6-dimethylbenzyl)imidazole (rats [1]): fully counteract | time to counteract the sedative effect of 4-(2,6-dimethylbenzyl)imidazole after the administration of compound (I) (rats [1]): 1 to 5 min

Cc1cccc(C)c1Cc1c[nH]cn1 [4-(2,6-dimethylbenzyl) imidazole, 4-(2,6-dimethylbenzyl)imidazole]
duration of loss of the righting reflex (rats [2]): 1 h
